Results: US7744889B2, “Alpha, beta-unsaturated sulfoxides for treating proliferative disorders” (Temple University - Of The Commonwealth System of Higher …, priority 2003, dated 2010)

How the values were obtained:
DU145, BT20, H157, DLD1 = experiment: Effect on tumor cell lines, viability by Trypan blue exclusion after 96 hours; assay type: cell-based; conditions: concentration required for 50% growth inhibition vs vehicle (DMSO) treated cells, doses 10 nM to 5 μM, one class for the four cell lines
Description: The effect of the α,β-unsaturated sulfoxides according to Formula I on tumor cells of prostate, colon, lung and breast origin was examined by utilizing the following cell lines: prostate tumor cell line DU-145; colorectal carcinoma cell line DLD-1; non-small cell lung carcinoma cell line H157; and breast tumor cell line BT-20. BT-20 is an estrogen-unresponsive cell line. BT-20, DLD-1 and H157 were grown in Dulbecco's modified Eagle's medium (DMEM) containing 10% fetal bovine serum supplemented with penicillin and streptomycin. DU145 was cultured in RPMI with 10% fetal bovine serum containing penicillin and streptomycin. NIH/3T3 (normal murine fibroblasts) and HFL-1cells (normal diploid human lung fibroblasts) were grown in DMEM containing 10% calf serum supplemented with penicillin and streptomycin.
Cells were plated at density levels of 1.0×10^5 cells per well in six-well plates. Cell cultures were maintained at 37° C. in a humidified atmosphere of 5% CO2.
Cells were treated with compounds of the invention at doses ranging from 10 nM to 5 μM concentration, and cell viability was determined after 96 hours by the Trypan blue exclusion method.
Values are reported as the GI50, i.e., the concentration (μM) required for 50% growth inhibition as compared to vehicle (DMSO) treated cells. The values reported in Table 7 are: ***=10-100 nM; **=100 nM-1μM; and *=>1μM.
Cells were treated with the test compound at concentrations in the range from 10 nM to 5 μM, and cell viability was determined after 96 hours by the Trypan blue exclusion method.

| Compound | GI50 (DU145, BT20, H157, DLD1) | melting point |
| --- | --- | --- |
| COc1ccc(C[S+]([O-])/C=C/c2c(OC)cc(OC)cc2OC)cc1 (stereo not drawn) [Example 29] | 100 to 1000 nM | 92 to 94 °C |
| COc1cc(OC)c(/C=C/[S+]([O-])Cc2ccc(OC)c([N+](=O)[O-])c2)c(OC)c1 (stereo not drawn) [Example 30] | > 1000 nM | 140 to 146 °C |
| O=C(O)c1ccc(/C=C/[S+]([O-])Cc2ccc(Cl)cc2)cc1 (stereo not drawn) [Example 32] |  | 270 to 274 °C |

Next, values leading:

| GI50 (DU145, BT20, H157, DLD1) | melting point | Compound |
| --- | --- | --- |
| 10 to 100 nM | 112 to 115 °C | COc1cc(OC)c(/C=C/[S+]([O-])Cc2ccc(OC)c(O)c2)c(OC)c1 (stereo not drawn) [Example 31] |
| 10 to 100 nM | 136 to 140 °C | COc1cc(OC)c(/C=C/[S+]([O-])Cc2ccc(OC)c(N)c2)c(OC)c1 (stereo not drawn) [Example 33, (E)-2,4,6-trimethoxystyryl-4-methoxy-3-aminobenzylsulfoxide] |
